Experimental data published in the supplement of paper PMC10627819.

What was measured:
[1] = system: S. aureus DSM 20231; test: fitness (endpoint OD595 vs no drug) (fraction); higher = more growth
Summary of the method: (§1)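 Fitness is computed from the optical density at which cultures reach stationary phase, divided by the robust mean of no-drug control wells. Any value above 1 is set to 1. Cultures started at OD595 0.01 in 384-well plates with TSB, LB Lennox or CY at 37 °C, and OD595 was read every 30 min for 14 h against a first-reading background.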

[2] = system: S. aureus Newman; test: as above
Summary of the method: as §1

[3] = system: S. pneumoniae D39V; test: as above
Summary of the method: as §1

[4] = system: B. subtilis 168; test: Bliss interaction score (quartile over a dose matrix) (fitness difference); higher = more antagonism (negative = synergy)
Summary of the method: (§2)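 Values were capped at 1 after dividing OD595 at stationary-phase entry by the plate's robust no-drug mean. This ratio is fitness, and single-drug fitness was inferred from the combination data. The Bliss score is observed minus product-expected fitness, given as quartiles over technical, biological and donor/recipient replicates.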

[5] = system: S. aureus DSM 20231; test: as above
Summary of the method: as §2

[6] = system: S. aureus Newman; test: as above
Summary of the method: as §2

[7] = system: S. pneumoniae D39V; test: as above
Summary of the method: as §2
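For Bliss interaction score (quartile over a dose matrix) in this document: first quartile when negative (synergy) and third quartile when positive (antagonism).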

CO/N=C(\C(=O)N[C@@H]1C(=O)N2C(C(=O)[O-])=C(C[N+]3(C)CCCC3)CS[C@H]12)c1csc(N)n1 [Cefepime] + Cc1cc(NS(=O)(=O)c2ccc(N)cc2)no1 [Sulfamethoxazol]
fitness
Details | first compound 0.007 µg/mL | first compound 0.014 µg/mL | first compound 0.028 µg/mL | first compound 0.125 µg/mL | first compound 0.25 µg/mL | first compound 0.5 µg/mL
[1], partner 1 µg/mL | – | – | – | 0.839 | 0.739 | 0.79
[1], partner 2 µg/mL | – | – | – | 0.88 | 0.766 | 0.84
[1], partner 4 µg/mL | – | – | – | 0.874 | 0.779 | 0.823
[2], partner 1 µg/mL | – | – | – | 0.956 | 0.875 | 0.745
[2], partner 2 µg/mL | – | – | – | 0.908 | 0.843 | 0.773
[2], partner 4 µg/mL | – | – | – | 0.964 | 0.863 | 0.789
[3], partner 1 µg/mL | 0.978 | 0.991 | 0.887 | – | – | –
[3], partner 2 µg/mL | 0.982 | 0.986 | 0.922 | – | – | –
[3], partner 4 µg/mL | 0.98 | 0.992 | 0.892 | – | – | –

fitness, one replicate
Details | first compound 0.0078 µg/mL | first compound 0.0155 µg/mL | first compound 0.031 µg/mL | first compound 0.125 µg/mL | first compound 0.25 µg/mL | first compound 0.5 µg/mL
[2], partner 8 µg/mL | – | – | – | 0.981 | 0.972 | 0.854
[3], partner 1 µg/mL | ≥ 1 | 0.99 | 0.842 | – | – | –
[3], partner 2 µg/mL | ≥ 1 | ≥ 1 | 0.866 | – | – | –
[3], partner 4 µg/mL | 0.959 | 0.914 | 0.804 | – | – | –

Details | Bliss interaction score
[4] | 0.0793
[5] | -0.0768
[6] | -0.0727
[7] | 0.034
